Laboratory results: PubChem BioAssay AID330 (DTP/NCI, 2004)
Several values for one entry are separate records, joined by “and”; a condition that tells them apart may be missing. Equal entries are not always repeated. Inconclusive results and toxic doses are left out.

Test system: P388 leukemia ip, CD2F1 mice, survival T/C
Test: NCI In Vivo Anticancer Drug Screen. Data for tumor model P388 Leukemia (intraperitoneal) in CD2F1 (CDF1) mice
Conditions: endpoint: median survival time, higher = longer survival
Method in brief: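 Mice carrying the transplanted tumor received test compound or vehicle. Survival was recorded in each group, and the value is the treated-group measurement divided by that of the vehicle-treated control group.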

[1] = dose: 60.0 mg/kg/injection, schedule: Q01DX005 (ip), vehicle: saline with Tween-80
[2] = dose: 120.0 mg/kg/injection, schedule: Q01DX005 (ip), vehicle: saline with Tween-80
[3] = dose: 240.0 mg/kg/injection, schedule: Q01DX005 (ip), vehicle: saline with Tween-80
[4] = dose: 50.0 mg/kg/injection, schedule: Q01DX009 (ip), vehicle: saline
[5] = dose: 100.0 mg/kg/injection, schedule: Q01DX009 (ip), vehicle: saline
[6] = dose: 200.0 mg/kg/injection, schedule: Q01DX009 (ip), vehicle: saline

## CCOC(=O)C1=C(C(=O)c2cccc3ccccc23)C(c2cccc([N+](=O)[O-])c2)C(C(=O)c2cccc3ccccc23)=C(C(=O)OCC)N1
dose: 15.0 mg/kg/injection, schedule: Q01DX005 (ip), vehicle: Klucel (hydroxypropylcellulose) (HPC)
  T/C: 97 % of control
dose: 30.0 mg/kg/injection, schedule: Q01DX005 (ip), vehicle: Klucel (hydroxypropylcellulose) (HPC)
  T/C: 97 % of control
dose: 60.0 mg/kg/injection, schedule: Q01DX005 (ip), vehicle: Klucel (hydroxypropylcellulose) (HPC)
  T/C: 99 % of control

## CCOC(=O)C1Cc2c(OC)cc(OC)cc2OC1=O (stereo not drawn)
[1]
  T/C: 97 % of control
[2]
  T/C: 94 % of control
[3]
  T/C: 92 % of control

## O=C1NC(=O)C2=C1CCC2Br (stereo not drawn)
dose: 3.13 mg/kg/injection, schedule: Q01DX009 (ip), vehicle: distilled water + Tween-80
  T/C: 101 % of control
dose: 6.25 mg/kg/injection, schedule: Q01DX009 (ip), vehicle: distilled water + Tween-80
  T/C: 102 % of control

## Nc1nc(N)c2nc(CCc3ccc(C(=O)NC(CCC(=O)O)C(=O)O)cc3)cnc2n1 (stereo not drawn)
dose: 1.5 mg/kg/injection, schedule: Q01DX009 (ip), vehicle: sodium bicarbonate
  T/C: 171 % of control
dose: 1.75 mg/kg/injection, schedule: Q01DX009 (ip), vehicle: sodium bicarbonate
  T/C: 204 % of control
dose: 2.0 mg/kg/injection, schedule: Q01DX009 (ip), vehicle: sodium bicarbonate
  T/C: 214 % of control

## CCC(=O)[O][Bi]([c]1ccccc1)[c]1ccccc1
dose: 25.0 mg/kg/injection, schedule: Q01DX005 (ip), vehicle: Klucel (hydroxypropylcellulose) (HPC)
  T/C: 99 % of control and 116 % of control
dose: 50.0 mg/kg/injection, schedule: Q01DX005 (ip), vehicle: Klucel (hydroxypropylcellulose) (HPC)
  T/C: 111 % of control and 114 % of control and 115 % of control
dose: 100.0 mg/kg/injection, schedule: Q01DX005 (ip), vehicle: Klucel (hydroxypropylcellulose) (HPC)
  T/C: 106 % of control and 124 % of control
dose: 200.0 mg/kg/injection, schedule: Q01DX005 (ip), vehicle: Klucel (hydroxypropylcellulose) (HPC)
  T/C: 168 % of control

## NC(=O)NC1(N)C(=O)NC(=O)NC1=O
[1]
  T/C: 94 % of control
[2]
  T/C: 95 % of control
[3]
  T/C: 93 % of control

## BrCC[N+]12CC[N+](CCBr)(CC1)C2
dose: 6.25 mg/kg/injection, schedule: Q01DX009 (ip), vehicle: saline
  T/C: 114 % of control
dose: 12.5 mg/kg/injection, schedule: Q01DX009 (ip), vehicle: saline
  T/C: 116 % of control
[4]
  T/C: 203 % of control and 110 % of control and 121 % of control
dose: 50.0 mg/kg/injection, schedule: Q04DX003 (ip), vehicle: water
  T/C: 101 % of control
[5]
  T/C: 202 % of control and 115 % of control and 118 % of control
dose: 100.0 mg/kg/injection, schedule: Q04DX003 (ip), vehicle: water
  T/C: 108 % of control
[6]
  T/C: 114 % of control
dose: 400.0 mg/kg/injection, schedule: Q04DX003 (ip), vehicle: water
  T/C: 173 % of control

## COCc1ccc2c(c1)C(O)NC(=O)O2 (stereo not drawn)
dose: 50.0 mg/kg/injection, schedule: Q01DX005 (ip), vehicle: saline with Tween-80
  T/C: 102 % of control
dose: 100.0 mg/kg/injection, schedule: Q01DX005 (ip), vehicle: saline with Tween-80
  T/C: 107 % of control
dose: 200.0 mg/kg/injection, schedule: Q01DX005 (ip), vehicle: saline with Tween-80
  T/C: 109 % of control
dose: 400.0 mg/kg/injection, schedule: Q01DX005 (ip), vehicle: saline with Tween-80
  T/C: 117 % of control

## CNC(=O)OCc1c(COC(=O)NC)c(C)n(-c2ccc3c(c2)OCO3)c1C
dose: 50.0 mg/kg/injection, schedule: Q01DX009 (ip), vehicle: Klucel (hydroxypropylcellulose) (HPC)
  T/C: 89 % of control

## O=C1c2ccccc2OCC1/C=N/O (stereo not drawn)
[1]
  T/C: 95 % of control
[2]
  T/C: 103 % of control
[3]
  T/C: 101 % of control

## CNC(=O)n1cc(Cl)ccc1=O
[4]
  T/C: 100 % of control and 108 % of control
[5]
  T/C: 100 % of control and 107 % of control
[6]
  T/C: 119 % of control

## O=C(O)c1cn2c(n1)sc1ccccc12
dose: 100.0 mg/kg/injection, schedule: Q01DX001 (ip), vehicle: Klucel (hydroxypropylcellulose) (HPC)
  T/C: 97 % of control
dose: 200.0 mg/kg/injection, schedule: Q01DX001 (ip), vehicle: Klucel (hydroxypropylcellulose) (HPC)
  T/C: 92 % of control
dose: 400.0 mg/kg/injection, schedule: Q01DX001 (ip), vehicle: Klucel (hydroxypropylcellulose) (HPC)
  T/C: 96 % of control

## COC(=O)C1(C)CCCC2(C)C3=CC(=O)OC3(OC)CCC12 (stereo not drawn)
dose: 2.5 mg/kg/injection, schedule: Q01DX009 (ip), vehicle: saline with Tween-80
  T/C: 107 % of control
dose: 5.0 mg/kg/injection, schedule: Q01DX009 (ip), vehicle: saline with Tween-80
  T/C: 101 % of control
dose: 10.0 mg/kg/injection, schedule: Q01DX009 (ip), vehicle: saline with Tween-80
  T/C: 103 % of control
